From PubChem BioAssay AID1959 (Broad Institute, 2009) come the findings set out here.

Calls of active or inactive are those of the source.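 The calls were made as follows: active = growth-inhibition EC50 no more than tenfold above the top tested dose; inconclusive = flat fit between 30% and 70% inhibition, or unreliable fit; inactive = EC50 more than tenfold above the top tested dose.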

This experiment deals with E. coli NEB5alpha growth, BacTiter-Glo luminescence, 4 h. Nature of the experiment: Escherichia coli growth inhibition, dose response, counter-screen for MEX-5/POS-1 RNA-binding inhibitor project, luminescence, NEB5alpha (AID 1959).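 Also: pUC19-transformed ampicillin-resistant cells grown in LB with ampicillin.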
As for `Cc1cc(NS(=O)(=O)c2ccc(Nc3nc(-c4sc(N)nc4C)cs3)cc2)no1`, the EC50 – broadly, the midpoint of the concentration-response curve – was > 11 µM (inactive).
`N=c1c(S(=O)(=O)c2ccc(Cl)cc2)cc2c(=O)n3ccccc3nc2n1CCc1ccccc1`: the EC50 was > 11 µM (inactive).
As for `CCCC1Nc2ccc(C(=O)O)cc2C2C=CCC12` (stereo unspecified), the EC50 is > 11 µM (inactive).
On to `O=C(/C=C/N1CCOCC1)c1ccc(-c2ccccc2)cc1`, for which the EC50 is > 11 µM (inactive).
Take `CC(=O)Nc1ccc(/C=C/C(=O)c2ccc3c(c2)OCCO3)cc1`: the EC50 was > 11 µM (inactive).
As to `Nc1ccc2c(c1)-c1ccccc1S(=O)(=O)N2`, the EC50 is > 11 µM (inactive).
With `O=C(c1cccs1)c1ccc(-c2cccs2)s1` the figure was > 11 µM (inactive); with `CO[C@H]1O[C@H](CBr)[C@@H](OC(=O)c2ccccc2)[C@H](O)[C@H]1O`, > 11 µM (inactive); with `O=C(O)c1ccc(-n2cccc2/C=C2/SC(=O)N(CC(=O)N3CCCC3)C2=O)cc1`, > 11 µM (inactive).
Take `CC1=CC(=C(C#N)c2nc3ccccc3s2)C=C(C)N1CC1CCCO1` (stereo unspecified): the EC50 was > 11 µM (inactive).
With `CC(C)C(C(=O)O)N1C(=O)/C(=C/C=C/c2ccco2)SC1=S` (stereo unspecified), the EC50 is > 11 µM (inactive).
With `CNC(=O)c1c(NC(=O)c2ccc(S(=O)(=O)N3CCCc4ccccc43)cc2)sc2c1CCN(C)C2` the figure was > 11 µM (inactive); with `Cc1ccc(NC(=O)CCS(=O)(=O)c2cc3c(cc2Cl)NC(=O)CO3)cc1`, > 11 µM (inactive).
Take `Cc1nnc(N2C(=O)C(O)=C(C(=O)c3ccco3)C2c2ccc(C(C)(C)C)cc2)s1` (stereo unspecified): the EC50 is > 11 µM (inactive).
With `Cn1cccc1/C=C1\C(=O)NC(=O)N(Cc2ccco2)C1=O` the figure was > 11 µM (inactive).
Consider `O=C(/C=C(\O)c1ccccc1)C(=O)NNC(=O)c1ccccc1[N+](=O)[O-]`, for which the EC50 is > 11 µM (inactive).
With `Cc1ccc2ccc(C3C(=O)c4ccccc4C3=O)nc2c1` the figure was > 11 µM (inactive); with `CCOC(=O)c1c(/N=C/c2c(O)n(-c3cccc(C)c3)c(=O)[nH]c2=O)sc2c1CCCC2`, > 11 µM (inactive).
With `COCCN1C(=O)/C(=C/c2c(OC)cc(OC)cc2OC)C(=O)N(c2ccccc2)C1=O` the figure was > 11 µM (inactive); with `CC(=O)N1CCc2c(sc(NC(=O)C3CCCCC3)c2C(N)=O)C1`, > 11 µM (inactive); with `O=C1c2cccc3c(N4CCCCC4)ccc(c23)C(=O)N1c1ccccn1`, > 11 µM (inactive).
With `CC(=O)Oc1cc2cccc(OC(C)=O)c(=O)c2c(OC(C)=O)c1OC(C)=O` the figure was > 11 µM (inactive).
Regarding `CC(=O)Nc1ccc(N=Cc2nc(-c3ccc(C)cc3)oc2O)cc1`, the EC50 was > 11 µM (inactive).
With `Cc1ccccc1OCC(=O)Nc1ccc2c(c1)C(=O)c1ccccc1C2=O` the figure was > 11 µM (inactive); with `N=c1c(S(=O)(=O)c2ccc(Cl)cc2)cc2c(=O)n3ccccc3nc2n1C1CCCC1`, > 11 µM (inactive).
Turning to `Cc1cc(C)c[n+](-c2[nH]c(=O)sc2/C=N/NC([S-])=Nc2ccccc2)c1`, the EC50 was > 11 µM (inactive).
Consider `Cc1c(NC(=O)CSc2ccc(Cl)cc2)cccc1-c1nc2cc(Cl)ccc2o1`, for which the EC50 is > 11 µM (inactive).
With `CCC(=O)OC1(C)C(=O)C=C2C=C(c3ccsc3)OC=C2C1=O` (stereo unspecified), the EC50 is > 11 µM (inactive).
With `CCCCC1=CC2=C(c3ccco3)C(=O)C(C)(OC(=O)c3ccc(OC)cc3)C(=O)C2=CN1C1CCCC1` (stereo unspecified) the figure was > 11 µM (inactive).
With `Oc1ccc2ccccc2c1/C=N/Nc1nnc(-c2ncc[nH]2)c2ccccc12` the figure was > 11 µM (inactive); with `CCOC(CNC(=O)CCc1c(C)nc2nc(C)nn2c1C)OCC`, > 11 µM (inactive).
Turning to `NC(=O)c1sc2nnc(-c3ccccc3)c(-c3ccccc3)c2c1N`, the EC50 is > 11 µM (inactive).
As for `CC(C)/C=C1\CC/C(=C\c2ccc(N(C)C)cc2)C1=O`, the EC50 was > 11 µM (inactive).
With `Cc1ccc(N=Cc2nc(-c3ccc(C)cc3)oc2O)cc1` the figure was > 11 µM (inactive); with `NS(=O)(=O)c1ccc(Nc2nc(-c3ccc(O)cc3O)cs2)cc1`, > 11 µM (inactive); with `COC(=O)C1=C(C)N=C2SC(C#N)=C(N)N2C1c1cccc(OC)c1` (stereo unspecified), > 11 µM (inactive).
With `Cc1cc(C=O)c(C)n1-c1ccc(Cl)c(C(=O)O)c1`, the EC50 was > 11 µM (inactive).
With `COc1cc2c(cc1OC)C(c1ccc(-c3ccc(Cl)c(Cl)c3)o1)=NCC2` the figure was > 11 µM (inactive).
With `COc1ccc(NS(=O)(=O)c2ccc3c(c2)[C@H]2C=CC[C@H]2[C@@H](c2ccc(C(=O)O)cc2)N3)cc1` the figure was > 11 µM (inactive).
With `O=C1c2ccccc2C(=O)N1CCCc1nc(-c2ccncc2)no1` the figure was > 11 µM (inactive); with `COc1ccc(-n2nc3c(=O)[nH][nH]c3cc2=O)cc1`, > 11 µM (inactive).
As to `COc1cc([C@H](Cc2ccccc2)NC(C)=O)oc(=O)c1`, the EC50 is > 11 µM (inactive).
For the compound `Cc1ccc(NC(=O)c2sc3nc4c(c(-c5ccco5)c3c2N)CCC4)cc1`, the EC50 was > 11 µM (inactive).
With `O=C(O)c1ccc(-c2ccc(/C=C3\NC(=O)N(Cc4ccc(Cl)cc4)C3=O)o2)cc1Cl` the figure was > 11 µM (inactive).
With `CCOC(=O)C1Nc2ccc(Br)cc2C2C=CCC12` (stereo unspecified) the figure was > 11 µM (inactive); with `O=C(O)c1cc(-n2cccc2)ccc1N1CCOCC1`, > 11 µM (inactive).
For the compound `Cc1c(O)ccc(-c2n[nH]c(C(=O)O)c2-c2nc3ccccc3s2)c1O`, the EC50 was > 11 µM (inactive).
With `O=C(CCc1ccc(O)c(O)c1)N/N=C/c1cc2c(cc1[N+](=O)[O-])OCO2` the figure was > 11 µM (inactive); with `O=C1c2ccccc2-c2onc3ccc(NCc4ccco4)c1c23`, > 11 µM (inactive); with `COc1ccc(C2CC(=O)C(C=NCCCO)=C(O)C2)cc1` (stereo unspecified), > 11 µM (inactive).
On to `Oc1ccc(O)c(-c2cnns2)c1`, for which the EC50 is > 11 µM (inactive).
With `NC(=O)c1c(NC(=O)c2c(F)cccc2F)sc2c1CCN(Cc1ccccc1)C2` the figure was > 11 µM (inactive).
As to `Cc1nc(S/C(=C/c2ccc(OCc3ccc(C(=O)O)cc3)cc2)C(=O)O)n[nH]1`, the EC50 was > 11 µM (inactive).
With `COc1cccc(NS(=O)(=O)c2ccc3c(c2)C2C=CCC2C(c2ccc(C(=O)O)cc2)N3)c1` (stereo unspecified) the figure was > 11 µM (inactive); with `Cc1nc2ccc(N3CCN(C)CC3)cc2nc1C`, > 11 µM (inactive); with `COc1ccc(CCNC(=O)c2nn(C)c3c2CS(=O)(=O)c2ccccc2-3)cc1OC`, > 11 µM (inactive).
With `OCCOc1ccc(C2=NCCO2)cc1` the figure was > 11 µM (inactive); with `CCOCCCNc1nc2nc3ccc(C)cn3c(=O)c2cc1C(=O)NCC1CCCO1` (stereo unspecified), > 11 µM (inactive); with `CC(C)(C)OC(=O)NCCCC1=CC2=CC(=O)C(C)(OC(=O)C3CCCC3)C(=O)C2=CO1` (stereo unspecified), > 11 µM (inactive).
With `Cn1ncc2c(NNC(=O)Cc3ccccc3)ncnc21` the figure was > 11 µM (inactive).
As to `CCOc1ccc2c(c1)/C(=C(\C(Cl)=C(Cl)Cl)[N+](=O)[O-])N2`, the EC50 was > 11 µM (inactive).
